Patent publication US6756387B2, “Hydroxyphenyl-piperidin-4-ylidene-methyl-benzamide derivatives for the treatment of pain” (AstraZeneca AB, priority 2000, dated 2004)

How the values were obtained:
Type in all cases: biochemical
[1] = target: T1, delta receptors, rat brain membranes (Rattus norvegicus, UniProt P33533); assay: GTP[γ]35S binding functional assay, homogenised rat brain; conditions: rat brain homogenate, read-out: RAT BRAIN % E Max
T1 construct: from tissue; host or cells: rat brain homogenate
T1 sequence (P33533 whole entry): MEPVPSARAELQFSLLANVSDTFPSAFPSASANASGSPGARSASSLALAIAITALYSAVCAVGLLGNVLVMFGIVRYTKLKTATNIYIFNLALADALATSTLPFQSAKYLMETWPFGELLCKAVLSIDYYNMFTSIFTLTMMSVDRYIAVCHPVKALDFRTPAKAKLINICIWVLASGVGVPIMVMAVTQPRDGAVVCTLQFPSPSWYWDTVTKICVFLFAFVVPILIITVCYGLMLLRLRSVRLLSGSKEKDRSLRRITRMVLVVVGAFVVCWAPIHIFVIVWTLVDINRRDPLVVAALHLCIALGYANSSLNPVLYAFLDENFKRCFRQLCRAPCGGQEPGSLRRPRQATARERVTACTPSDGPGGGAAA
Experimental: (§1) B. Mouse and rat brains were weighed and rinsed in ice-cold PBS (containing 2.5 mM EDTA, pH 7.4). The brains were homogenized with a polytron for 15 sec (mouse) or 30 sec (rat) in ice-cold lysis buffer (50 mM Tris, pH 7.0, 2.5 mM EDTA, with phenylmethylsulfonyl fluoride added just prior use to […] from a 0.5M stock in DMSO:ethanol).
(§2) The agonist activity of the compounds is measured by determining the degree to which the compounds receptor complex activates the binding of GTP to G-proteins to which the receptors are coupled. In the GTP binding assay, GTP[γ]^35S is combined with test compounds and membranes from HEK-293S cells expressing the cloned human opioid receptors or from homogenised rat and mouse brain. Agonists stimulate GTP[γ]^35S binding in these membranes. The EC50 and Emax values of compounds are determined from dose-response curves. Right shifts of the dose response curve by the delta antagonist naltrindole are performed to verify that agonist activity is mediated through delta receptors.

[2] = target: T2, delta receptors, mouse brain membranes (Mus musculus, UniProt P32300); assay: GTP[γ]35S binding functional assay, homogenised mouse brain; conditions: mouse brain homogenate, read-out: MOUSE BRAIN % E Max
T2 construct: from tissue; host or cells: mouse brain homogenate
T2 sequence (P32300 whole entry): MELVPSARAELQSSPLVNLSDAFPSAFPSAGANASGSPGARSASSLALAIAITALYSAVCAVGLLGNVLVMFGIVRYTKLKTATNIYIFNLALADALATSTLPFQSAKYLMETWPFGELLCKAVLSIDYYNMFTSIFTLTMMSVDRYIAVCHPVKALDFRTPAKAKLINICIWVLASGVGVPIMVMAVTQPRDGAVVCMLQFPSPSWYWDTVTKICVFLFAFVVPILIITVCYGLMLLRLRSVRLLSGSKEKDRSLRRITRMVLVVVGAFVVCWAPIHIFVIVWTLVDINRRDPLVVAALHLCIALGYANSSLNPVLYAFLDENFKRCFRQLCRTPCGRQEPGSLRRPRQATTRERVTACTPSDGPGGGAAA
Experimental: as §1, §2

[3] = target: T3, cloned human δ receptor (HDELTA) (Homo sapiens, UniProt P41143); assay: GTP[γ]35S binding functional assay, membranes from HEK-293S cells expressing cloned human opioid receptors; conditions: HEK-293S membranes, read-out: HDELTA % E Max
T3 construct: expressed in transfected cells; host or cells: human 293S (HEK-293S) cells, geneticin-selected
T3 sequence (P41143 whole entry): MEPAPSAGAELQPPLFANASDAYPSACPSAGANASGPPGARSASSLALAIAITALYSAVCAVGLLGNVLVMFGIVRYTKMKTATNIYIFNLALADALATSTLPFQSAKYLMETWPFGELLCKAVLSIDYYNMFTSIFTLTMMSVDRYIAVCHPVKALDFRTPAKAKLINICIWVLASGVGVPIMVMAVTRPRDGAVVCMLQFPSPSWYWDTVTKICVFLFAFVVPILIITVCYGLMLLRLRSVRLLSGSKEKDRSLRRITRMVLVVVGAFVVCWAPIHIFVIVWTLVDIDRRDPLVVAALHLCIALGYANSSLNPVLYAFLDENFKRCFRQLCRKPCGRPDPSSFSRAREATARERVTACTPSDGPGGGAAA
Experimental: A. Human 293S cells expressing cloned human μ, δ, and κ receptors and neomycin resistance were grown in suspension at 37° C. and 5% CO2 in shaker flasks containing calcium-free DMEM10% FBS, 5% BCS, 0.1% Pluronic F-68, and 600 μg/ml geneticin.
Cells were pelleted and resuspended in lysis buffer (50 mM Tris, pH 7.0, 2.5 mM EDTA, with PMSF added just prior to use to 0.1 mM from a 0.1 M stock in ethanol), incubated on ice for 15 min, then homogenized with a polytron for 30 sec. The suspension was spun at 1,000 g (max) for 10 min at 4° C. The supernatant was saved on ice and the pellets resuspended and spun as before. The supernatants from both spins were combined and spun at 46,000 g(max) for 30 min. The pellets were resuspended in cold Tris buffer (50 mM Tris/Cl, pH 7.0) and spun again. The final pellets were resuspended in membrane buffer (50 mM Tris, 0.32 M sucrose, pH 7.0). Aliquots (1 ml) in polypropylene tubes were frozen in dry ice/ethanol and stored at −70° C. until use. The protein concentrations were determined by a modified Lowry assay with SDS.
as §2

Row | SMILES | Emax [1] [%] | Emax [2] [%] | Emax [3] [%]
1 | CCN(CC)C(=O)c1ccc(C(=C2CCN(Cc3ccccc3)CC2)c2cccc(O)c2)cc1 [Example 2, N,N-diethyl-4-(3-hydroxylphenyl-N-benzyl-piperidin-4-ylidene-methyl)-benzamide] | 112 | 104 | 104
2 | CCN(CC)C(=O)c1ccc(C(=C2CCN(Cc3cccs3)CC2)c2cccc(O)c2)cc1 [Example 3, N,N-diethyl-4-{(3-hydroxyphenyl)[1-(2-thienylmethyl)-4-piperidinylidene]methyl}benzamide] | 168 | 186 | 98.2
3 | CCN(CC)C(=O)c1ccc(C(=C2CCN(Cc3ccco3)CC2)c2cccc(O)c2)cc1 [Example 5, N,N-diethyl-4-[[1-(2-furylmethyl)-4-piperidinylidene](3-hydroxyphenyl)methyl]benzamide] | 132 | 134 | 94.8
4 | CCN(CC)C(=O)c1ccc(C(=C2CCN(Cc3ccccn3)CC2)c2cccc(O)c2)cc1 [Example 7, N,N-diethyl-4-{(3-hydroxyphenyl)[1-(2-pyridinylmethyl)-4-piperidinylidene]methyl}benzamide] | 135 | 138 | 103
5 | CCN(CC)C(=O)c1ccc(C(=C2CCN(Cc3ccncc3)CC2)c2cccc(O)c2)cc1 [Example 8, N,N-diethyl-4-{(3-hydroxyphenyl)[1-(4-pyridinylmethyl)-4-piperidinylidene]methyl}benzamide] | 81.4 | 78.2 | 112
6 | CCN(CC)C(=O)c1ccc(C(=C2CCN(Cc3ncc[nH]3)CC2)c2cccc(O)c2)cc1 [Example 9, N,N-diethyl-4-{(3-hydroxyphenyl)[1-(1H-imidazol-2-ylmethyl)-4-piperidinylidene]methyl}benzamide] | 151 | 136 | 106
7 | CCN(CC)C(=O)c1ccc(C(=C2CCN(Cc3c[nH]cn3)CC2)c2cccc(O)c2)cc1 [Example 10, N,N-diethyl-4-{(3-hydroxyphenyl)[1-(1H-imidazol-4-ylmethyl)-4-piperidinylidene]methyl}benzamide] | 102 | 104 | 107
8 | CCN(CC)C(=O)c1ccc(C(=C2CCN(Cc3nccs3)CC2)c2cccc(O)c2)cc1 [Example 11, N,N-diethyl-4-{(3-hydroxyphenyl)[1-(1,3-thiazol-2-ylmethyl)-4-piperidinylidene]methyl}benzamide] | 120 | 118 | 115
